The values that follow come from publication PMC10384874, “The Expression of Antibacterial Peptide Turgencin A in Pichia pastoris and an Analysis of Its Antibacterial Activity” (Molecules, 2023).

No end group written: not given here.

A word on the MIC: it is the lowest concentration that inhibits growth of the organism. Higher therefore signals a need for much substance.

Series [1] deals with S. aureus ATCC25923. Description: Minimum inhibitory concentration (MIC) determination. The class given is cell-based, Staphylococcus aureus. The following applies: S. aureus (ATCC 25923); 96-well plate, LB, fermentation supernatant diluted to 1-6 μg·mL^−1; lowest peptide concentration with no bacterial growth; n = 3. As to the method:
(§1) A single colony of the tested bacteria was picked to LB liquid medium and incubated at 37 °C until the OD600 reached about 1. This test bacteria solution was diluted 1000 times. The fermentation supernatant was serially diluted in a 96-well plate using replacement buffer to 1, 2, 3, 4, 5, and 6 μg·mL^−1 concentrations. Then, 20 μL of the diluted peptide and 100 μL of the test bacterium were added to each well. The negative control and positive control were […], respectively. The MIC value was defined as the lowest peptide concentration associated with no bacterial growth. In this study, the MIC values of Turgencin A were determined against S. aureus ATCC25923, Salmonella spp. ATCC10467, E. coli ATCC10305, E. Coli O157 ATCC35150, L. monocytogenes ATCC21633, and B. subtilis ATCC6633.

A further series concerns B. subtilis ATCC6633. Described as above. Type of series: cell-based, Bacillus subtilis. The conditions noted are these: B. subtilis (ATCC 6633); 96-well plate, LB, fermentation supernatant diluted to 1-6 μg·mL^−1; lowest peptide concentration with no bacterial growth; n = 3. As to the method: as §1
Series [2] relates to L. monocytogenes ATCC21633. The description is as above. The conditions noted are these: L. monocytogenes (ATCC 21633); 96-well plate, LB, fermentation supernatant diluted to 1-6 μg·mL^−1; lowest peptide concentration with no bacterial growth; n = 3. Type of series: cell-based, Listeria monocytogenes. As to the method: as §1
Series [3] concerns Salmonella spp. ATCC10467. Described as above. The conditions noted are these: Salmonella spp. (ATCC 10467); 96-well plate, LB, fermentation supernatant diluted to 1-6 μg·mL^−1; lowest peptide concentration with no bacterial growth; n = 3. The class given is cell-based. How it is done:
as §1

In a further series the test system is E. coli O157 ATCC35150. The series is described as above. Type of series: cell-based, Escherichia coli O157. The following applies: E. coli O157 (ATCC 35150); 96-well plate, LB, fermentation supernatant diluted to 1-6 μg·mL^−1; lowest peptide concentration with no bacterial growth; n = 3. As to the method:
as §1

For the next series, the system named is E. coli ATCC10305. The series is described as above. The conditions noted are these: E. coli (ATCC 10305); 96-well plate, LB, fermentation supernatant diluted to 1-6 μg·mL^−1; lowest peptide concentration with no bacterial growth; n = 3. Type of series: cell-based, Escherichia coli. As to the method: as §1
The test system of series [4] is S. aureus ATCC25923. Description: Agar well diffusion assay. Type of series: cell-based, Staphylococcus aureus. The conditions noted are these: 9 μg·mL^−1 rTurgencin A fermentation supernatant, 50 μL per well, against 50 μg·mL^−1 gentamicin. As to the method: (§2) The test bacterial strain was seeded into an LB liquid medium and cultured at 37 °C until the OD600 value reached 1. In total, 50 μL of bacteria was mixed with the 15 mL molten LB medium (1% peptone, 1% NaCl, and 0.5% yeast extract) at 25 °C and allowed to solidify. Holes were punched with sterile gun heads. Subsequently, 50 μL of the fermentation supernatant was added to the holes. Gentamicin (Gen) at 50 µg·mL^−1 was used as the positive control. The antibacterial peptide SC3, which was not active in the laboratory, was used as the negative control.
(In general: In agar diffusion tests the substance spreads into inoculated agar from a disc or well.)

In series [5] the test system is L. monocytogenes ATCC21633. Description: Agar well diffusion assay. The class given is cell-based, Listeria monocytogenes. The following applies: 9 μg·mL^−1 rTurgencin A fermentation supernatant, 50 μL per well, against 50 μg·mL^−1 gentamicin. How it is done: as §2
In series [6] the test system is Gram-positive and Gram-negative bacteria. The experiment in a line: Agar well diffusion assay, inhibition profiling of six strains. The class given is cell-based. The conditions noted are these: fermentation supernatant, 9 μg·mL^−1 rTurgencin A; B. subtilis, S. aureus, L. monocytogenes, Salmonella spp., E. coli O157, E. coli. As to the method: as §2
The test system of series [7] is S. aureus ATCC25923. The experiment in a line: pH stability, read out by agar well diffusion assay. The conditions noted are these: 13.7 μg·mL^−1; 100 mM buffers pH 2, 4, 6, 8, 10; 37 °C, 4 h; inhibition circle against S. aureus ATCC25923 after 12 h; n = 3. The class given is physicochemical, Staphylococcus aureus. As to the method:
as §2
(§3) The rTurgencin A freeze-dried fermentation supernatant was dissolved in different buffers. The contents were all 200 mg·mL^−1. Therefore, the concentrations of rTurgencin A in this experiment were all 13.7 μg·mL^−1.
The rTurgencin A freeze-dried fermentation supernatant was dissolved in a glycine solution at a pH of 2, a sodium acetate solution at a pH of 4, a Tris-HCl solution at a pH of 6, a Tris-HCl solution at a pH of 8, and a glycine solution at a pH of 10. The final concentrations of the buffer solution were all 100 mM. Then, the samples were treated at 37 °C for 4 h and subjected to the agar well diffusion assay. Twelve hours later, the inhibition circle was observed. The negative control was a buffer solution of different pHs.

In series [8] the test system is S. aureus ATCC25923. Description: Temperature stability, read out by agar well diffusion assay. The following applies: 13.7 μg·mL^−1 in 50 mM pH 7.4 Tris-HCl, inhibition circle against S. aureus ATCC25923 after 12 h, n = 3. The class given is physicochemical, Staphylococcus aureus. As to the method: as §2, §3
The rTurgencin A freeze-dried fermentation supernatant was dissolved in a 50 mM pH 7.4 Tris-HCl solution and then treated at 4 °C, 25 °C, 37 °C, 65 °C, and 90 °C for 1 h. The samples were subjected to an agar well diffusion assay. Twelve hours later, the inhibition circle was observed. The negative control was a 50 mM pH 7.4 Tris-HCl solution after treatment for 1 h at the same temperature.

Series [9] deals with S. aureus ATCC25923. The experiment in a line: Protease stability, read out by agar well diffusion assay. The class given is in vitro ADME, Staphylococcus aureus. The following applies: 2 h, 13.7 μg·mL^−1, inhibition circle against S. aureus ATCC25923, n = 3. How it is done: as §2, §3
The rTurgencin A freeze-dried fermentation supernatant was dissolved in buffers of a glycine solution at a pH of 2, a PBS solution at a pH of 6, a Tris-HCl solution at a pH of 7, and a Tris-HCl solution at a pH of 8. The final concentrations of the buffer solution were all 100 mM. Pepsin was added to the solution at a pH of 2, papain at a pH of 6, proteinase K at a pH of 7, and trypsin at a pH of 8. The protease concentrations were all 1 mg·mL^−1. The mixtures of 0.24 U of different protease solutions and rTurgencin A were reacted at 37 °C for 2 h. The samples were then subjected to an agar well diffusion assay. Twelve hours later, the inhibition circle was observed. The negative control was different protease solutions.

Series [10] has as its system S. aureus ATCC25923. Description: Stability in salt solutions, read out by agar well diffusion assay. The class given is physicochemical, Staphylococcus aureus. The conditions noted are these: 5 mM MgCl2, 50 mM MgCl2, 50 mM KCl and 150 mM KCl; 13.7 μg·mL^−1; inhibition circle against S. aureus ATCC25923; n = 3. As to the method: as §2, §3
The rTurgencin A freeze-dried fermentation supernatant was dissolved in 5 mM MgCl2, 50 mM MgCl2, 50 mM KCl, and 150 mM KCl, respectively. Then, the samples were subjected to an agar well diffusion assay. Twelve hours later, the inhibition circle was observed. The negative control was the different salt solutions.

For series [11], the system named is S. aureus ATCC25923. Description: Total nucleotide leakage. The class given is cell-based, Staphylococcus aureus. The conditions noted are these: positive control 0.1% Triton X-100, 4 h. How it is done:
The total nucleotide leakage associated with the peptide activity was analyzed according to the protocol described by Shwaiki et al.. We detected the total nucleotide leakage of the effect of Turgencin A on the cell membrane of S. aureus ATCC25923. The OD of each concentration was measured at 260 nm after four hours of contact reaction. The positive and negative controls were 0.1% Triton X-100 and water, respectively.

For series [12], the system named is total food spoilage bacteria in pork. The experiment in a line: Pork preservation experiment, total number of bacteria. The following applies: pork treated with rTurgencin A at 10 μg·mL^−1, stored at 4 °C; days 0, 1, 3, 5; control group increasing. How it is done: The fermentation supernatant was passed through a 0.22 μm membrane filter and transferred to a beaker. Fresh pork hind leg meat was cut into 5 g pieces and placed in the above solution, soaked for 1 min in each direction, shaken so that the surface of the meat was fully exposed to the solution, removed, placed on cling film to drain, left for 5 min at room temperature, turned over, and left for another 5 min to remove excess water so that the meat neither dripped nor was too dry. […] The colony count is expressed by colony-forming units (CFU), and a common logarithm determines the total number of colonies. SC3 served as the negative control.

A short description of series [13]: Pork preservation experiment, flesh color. The conditions noted are these: pork treated with rTurgencin A at 10 μg·mL^−1, stored at 4 °C; days 0, 2, 4, 6; control deteriorated on day 4. How it is done: The fermentation supernatant was passed through a 0.22 μm membrane filter and transferred to a beaker. Fresh pork hind leg meat was cut into 5 g pieces and placed in the above solution, soaked for 1 min in each direction, shaken so that the surface of the meat was fully exposed to the solution, removed, placed on cling film to drain, left for 5 min at room temperature, turned over, and left for another 5 min to remove excess water so that the meat neither dripped nor was too dry. The meat was then wrapped in plastic and stored in a refrigerator at 4 °C for seven days. During this period, the pork samples were tested for colony counts every 48 h, according to the method of GB 4789-2022 [42]. The colony count is expressed by colony-forming units (CFU), and a common logarithm determines the total number of colonies. SC3 served as the negative control.

Series [14] can be described thus: Antibacterial activity of the nickel column purified product. Type of series: cell-based. The conditions noted are these: nickel column purified product after dialysis of the replacement solution. As to the method: For the affinity purification with a nickel column, the Ni NTA Beads 6FF filler (Smart-Lifesciences, Changzhou, China) was added to the column, and the filler was rinsed twice with distilled water to remove ethanol, followed by two rinses with binding buffer (50 mM Tris-HCl pH = 7.9, 500 mM NaCl, and 10 mM Imidazole). The fermentation supernatant was treated with a 0.45 μm membrane filter, added to the nickel column, and combined with filler for 1 h in a low-speed shaker at 4 °C. The flow solution was collected and rinsed with binding buffer (50 mM Tris-HCl pH = 7.9, 500 mM NaCl, and 10 mM Imidazole) three times to wash off unbound proteins. Elution buffer (50 mM Tris-HCl pH = 7.9, 500 mM NaCl, and 1 M imidazole) was added and the eluent of the target protein was collected. Finally, the eluent was dialyzed in 0.01 M PBS for 12 h at a low temperature.

Regarding “GPKTKAACKMACKLATCGKKPGGWKCKLCELGCDAV (disulfide (positions not given here)) [rTurgencin A, His-tagged recombinant Turgencin A expressed in Pichia pastoris; tested as yeast fermentation supernatant, concentration by ELISA]”, the MIC against S. aureus ATCC25923 [1] is 3 µg/mL; in the series on B. subtilis ATCC6633, 2 µg/mL; in series [2], 3 µg/mL; in [3] it was 4 µg/mL; in the series with E. coli O157 ATCC35150, 5 µg/mL; against E. coli ATCC10305, 5 µg/mL. In addition, the “inhibition circle diameter compared with gentamicin” value (in the series with S. aureus ATCC25923 [4]; in series [5]) was “more significant than 50 μg·mL^−1 gentamicin” each time. In addition, in series [6], the “antibacterial activity (inhibition profiling)” value was “provided antibacterial activity against Gram-positive and Gram-negative bacteria”. In addition, the “reduction in inhibitory action at low pHs” value in the series with S. aureus ATCC25923 [7] is 40%. Further, in the series on S. aureus ATCC25923 [7], the “stability at neutral and high pH levels” value is on record as “good stability”. In addition, the “stability at low and room temperatures” value with S. aureus ATCC25923 [8] (4 °C, 25 °C and 37 °C for 1 h) was “good stability”. The “diameter of the inhibition circle as % of the maximum inhibition circle diameter” value with S. aureus ATCC25923 [8] (90 °C for 1 h) stood at 55%. For the same sequence, the stability in papain entry in the series with S. aureus ATCC25923 [9] (papain 1 mg·mL^−1 (0.24 U), 100 mM PBS pH 6, 37 °C) is listed as “good stability”. For the same sequence, the “antibacterial activity remaining in the presence of pepsin” value with S. aureus ATCC25923 [9] (pepsin 1 mg·mL^−1 (0.24 U), 100 mM glycine pH 2, 37 °C) came out at 70%. Also, the stability in k-protease entry with S. aureus ATCC25923 [9] (proteinase K 1 mg·mL^−1 (0.24 U), 100 mM Tris-HCl pH 7, 37 °C) was “good stability”. The stability in trypsin entry in the series with S. aureus ATCC25923 [9] (trypsin 1 mg·mL^−1 (0.24 U), 100 mM Tris-HCl pH 8, 37 °C) is given as “good stability”. For the same sequence, the “antibacterial activity in salt solutions” value with S. aureus ATCC25923 [10] is listed as “not affected”. For the same sequence, the “total nucleotide leakage relative to the positive control” value amounted to 34.3% with S. aureus ATCC25923 [11] (1 × MIC), 77.3% with S. aureus ATCC25923 [11] (2 × MIC) and 131.5% in the series with S. aureus ATCC25923 [11] (3 × MIC). For the same sequence, in [12], the “bacterial colonies in pork over storage days” value is “showed a decreasing trend with an increase in days”. In [13], the “color of the pork flesh” value was “still bright on the fourth day”. In addition, the “antibacterial activity of the purified product” value in series [14] is listed as “deficient antibacterial activity”.
